Assay results taken from patent publication US12410160B2 (Gilead Sciences, Inc., priority 2021, dated 2025).
Like-named read-outs stand apart in the source and are kept apart here.

Experiments:
human KHK-C = human KHK-C (Homo sapiens (Human), UniProt P50053); assay: KHK Biochemical Assay (IC50), ADP-Glo, KHK-C; details: average of at least two separate assays
How it was run: (§1)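 His-tagged enzyme expressed in BL21 (DE3), Ni-NTA purified. Compounds, serially diluted 1:3 in DMSO, pre-incubated 30 min with enzyme in 50 mM Hepes pH 7.4, 140 mM KCl, 5 mM MgCl2, 0.01% Triton-X, then ATP and fructose added; 4 h at room temperature. ADP formation read by ADP-Glo luminescence.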

HepG2 cells = assay: F1P Cell-Based Assay (EC50), 13C6-fructose-1-phosphate in HepG2 cells (cell culture medium or 50% human plasma)
[1] = biological target: KHK-C expressed in NRK-52E cells (Homo sapiens (Human), UniProt P50053); assay: KHK-C Cell-based Assay (EC50), NRK CTG, fructose-mediated ATP-depletion
Chain of KHK-C expressed in NRK-52E cells (P50053 whole entry): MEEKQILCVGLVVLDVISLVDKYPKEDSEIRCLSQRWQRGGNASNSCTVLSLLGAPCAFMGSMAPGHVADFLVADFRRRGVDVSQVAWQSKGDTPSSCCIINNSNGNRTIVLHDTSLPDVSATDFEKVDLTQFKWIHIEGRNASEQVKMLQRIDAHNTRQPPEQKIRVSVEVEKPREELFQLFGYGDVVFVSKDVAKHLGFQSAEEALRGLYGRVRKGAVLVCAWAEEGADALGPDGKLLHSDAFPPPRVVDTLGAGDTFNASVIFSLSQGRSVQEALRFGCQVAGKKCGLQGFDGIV

human KHK-A = human KHK-A (Homo sapiens (Human), UniProt P50053); assay: KHK Biochemical Assay (IC50), ADP-Glo, KHK-A; details: average of at least two separate assays
Chain of human KHK-A (P50053 other isoform, or with tags, fused parts or gaps): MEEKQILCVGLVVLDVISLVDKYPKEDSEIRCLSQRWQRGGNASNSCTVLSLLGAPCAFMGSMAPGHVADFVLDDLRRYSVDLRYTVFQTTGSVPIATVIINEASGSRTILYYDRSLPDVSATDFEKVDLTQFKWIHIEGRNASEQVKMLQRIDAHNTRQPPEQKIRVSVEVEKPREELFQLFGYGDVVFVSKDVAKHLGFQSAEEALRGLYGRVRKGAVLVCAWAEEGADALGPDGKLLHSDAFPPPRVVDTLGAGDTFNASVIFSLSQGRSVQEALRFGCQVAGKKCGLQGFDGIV
How it was run: as §1

[2] = Homo sapiens, HepG2, HepG2 cells, 50% human plasma, read-out: F1P 50% HP EC50
[3] = Homo sapiens, HepG2, read-out: F1P 10% FBS EC50, HepG2 cells, cell culture medium (10% FBS)
[4] = HepG2 cells, 50% human plasma, read-out: F1P 50% HP EC50
[5] = read-out: F1P 10% FBS EC50, HepG2 cells, cell culture medium (10% FBS)
[6] = read-out: NRK CTG EC50, NRK-52E cells, Cell-Titer Glo, 25 mM fructose
[7] = read-out: NRK CTG EC50, NRK-52E cells, Cell-Titer Glo, 25 mM fructose, 48 hours
[8] = read-out: NRK CTG EC50, NRK-52E cells, fructose-mediated ATP-depletion, Cell-Titer Glo

Chain of human KHK-C (P50053 whole entry): as the sequence (P50053 whole entry) above

IC50 (human KHK-C) [nM]	EC50 (HepG2 cells; [2]) [nM]	EC50 (HepG2 cells; [3]) [nM]	EC50 [1] [nM]	IC50 (human KHK-A) [nM]	EC50 (HepG2 cells; [4]) [nM]	EC50 (HepG2 cells; [5]) [nM]	EC50 [1, 6] [nM]	IC50 (human KHK-C; ADP-Glo) [nM]	IC50 (human KHK-A; ADP-Glo) [nM]	EC50 [1, 7] [nM]	Molecule	EC50 [1, 8] [nM]
11.7	41.9	32.4	52.7	–	–	–	–	–	–	–	C[C@H]1[C@H](O)CN1c1nc(-c2cccc([S@](C)(=N)=O)c2)c2c(n1)C(F)(F)CC2 (single isomer, unassigned) [Example 493]	–
7.6	23.9	9	65.4	14.4	–	–	–	–	–	–	COc1ccc(-c2nc(N3C[C@@H](O)[C@@H]3C)nc3c2CCC3(F)F)cc1[S@](C)(=N)=O (single isomer, unassigned) [Example 496]	–
3.8	8.9	7.3	18.2	4.4	–	–	–	–	–	–	C[C@H]1[C@H](O)CN1c1nc(-c2ccc(OC(F)F)c([S@@](C)(=N)=O)c2)c2c(n1)C(F)(F)CC2 (single isomer, unassigned) [Example 533]	–
0.1	17.4	5.4	3.8	5.4	–	–	–	–	–	–	C[C@H]1[C@H](O)CN1c1nc(-c2ccc3c(c2)CC[C@@]32COCC(=O)N2)c2c(n1)C(F)(F)CC2 (single isomer, unassigned) [Example 549]	–
1.2	–	–	–	30.5	117	59.7	29	–	–	–	C[C@H]1[C@H](O)CN1c1nc(-c2ccc3c(c2)COC[C@@]32COC(=O)N2)c2c(n1)C(F)(F)CC2 (single isomer, unassigned) [Example 555]	–
26.6	> 500	210	201	42.1	–	–	–	–	–	–	C[C@H]1[C@H](O)CN1c1nc(-c2ccc3c(c2)COC[C@]32COC(=O)N2)c2c(n1)C(F)(F)CC2 (single isomer, unassigned) [Example 556]	–
0.2	–	–	–	7.8	16.3	5.6	3.2	–	–	–	CC1OC[C@@]2(COc3cc(-c4nc(N5C[C@@H](O)[C@@H]5C)nc5c4CCC5(F)F)ccc32)NC1=O (single isomer, unassigned) [Example 559]	–
0.5	> 500	10.2	10.3	–	–	–	–	–	–	–	C[C@H]1[C@H](O)CN1c1nc(-c2ccc3c(c2)C(C)(C)C[C@@H]3NS(C)(=O)=O)c2c(n1)C(F)(F)CC2 (single isomer, unassigned) [Example 632]	–
0.1	23.7	20.1	3.7	8.6	–	–	–	–	–	–	CCN1C(=O)N[C@]2(COc3cc(-c4nc(N5C[C@@H](O)[C@@H]5C)nc5c4CCC5(F)F)ccc32)C1=O (single isomer, unassigned) [Example 697]	–
5.6	–	–	–	47.4	267	152	71.5	–	–	–	CCN1C(=O)N[C@@]2(COc3cc(-c4nc(N5C[C@@H](O)[C@@H]5C)nc5c4CCC5(F)F)ccc32)C1=O (single isomer, unassigned) [Example 698]	–
–	–	–	–	–	67.8	20.3	–	6.2	14.3	26.5	C[C@H]1[C@H](O)CN1c1nc(-c2ccc3c(c2)[S@](=N)(=O)CCO3)c2c(n1)C(F)(F)CC2 (single isomer, unassigned) [Example 820]	–
–	–	–	–	–	75.4	20	–	5	–	42.2	C[C@H]1[C@H](O)CN1c1nc(-c2ccc3c(c2)[S@@](=N)(=O)CCO3)c2c(n1)C(F)(F)CC2 (single isomer, unassigned) [Example 821]	–
–	–	–	–	–	216	90.6	–	6.4	48.2	56.3	C[C@H]1[C@H](O)CN1c1nc(-c2cnc3c(c2)OC[C@@H]3NS(C)(=O)=O)c2c(n1)C(F)(F)CC2 (single isomer, unassigned) [Example 823]	–
–	16.8	15.7	4.2	–	–	–	–	0.3	12.3	–	C[C@H]1[C@H](O)CN1c1nc(-c2ccc3c(c2)OC[C@@]32NC(=O)N(C)C2=O)c2c(n1)C(F)(F)CC2 (single isomer, unassigned) [Example 826]	–
–	49	9.7	2.3	–	–	–	–	0.8	–	–	C[C@H]1CCN1c1nc(-c2ccc3c(c2)OCCNC3=O)c2c(n1)C(F)(F)CC2 [Example 165, (S)-8-(7,7-difluoro-2-(2-methylazetidin-1-yl)-6,7-dihydro-5H-cyclopenta[d]pyrimidin-4-yl)-3,4-dihydrobenzo[f][1,4]oxazepin-5(2H)-one]	–
14.1	333	77.6	8.7	–	–	–	–	–	–	–	C[C@H]1CCN1c1nc2c(c(-c3ccc(C4(O)CS(=O)(=O)C4)cc3)n1)CCC2 [Example 451, (S)-3-hydroxy-3-(4-(2-(2-methylazetidin-1-yl)-6,7-dihydro-5H-cyclopenta[d]pyrimidin-4-yl)phenyl)thietane 1,1-dioxide]	–
0.2	50.2	2.5	3.4	–	–	–	–	–	–	–	C[C@H]1CCN1c1nc(-c2ccc3c(c2)OC[C@@H]3NS(C)(=O)=O)c2c(n1)C(F)(F)CC2 [Example 528, N—((R)-6-(7,7-difluoro-2-((S)-2-methylazetidin-1-yl)-6,7-dihydro-5H-cyclopenta[d]pyrimidin-4-yl)-2,3-dihydrobenzofuran-3-yl)methanesulfonamide]	–
–	190	66.3	35	–	–	–	–	–	–	–	C[C@H]1[C@H](O)CN1c1nc(-c2ccc3c(c2)COCC32CCC(=O)N2)c2c(n1)C(F)(F)CC2 (stereo partly shown) [Example 639]	–
1.2	27.6	3.9	7.1	–	–	–	–	–	–	–	C[C@H]1CCN1c1nc(-c2ccc(C3(N)CC(F)(F)C3)cc2)c2c(n1)C(F)(F)CC2 [Example 648, 1-[4-[7,7-difluoro-2-[(2S)-2-methylazetidin-1-yl]-5,6-dihydrocyclopenta[d]pyrimidin-4-yl]phenyl]-3,3-difluoro-cyclobutanamine]	–
2.4	57	12.9	8.6	–	–	–	–	–	–	–	C[C@H]1CCN1c1nc(-c2ccc([C@@H](N)C(F)F)cc2)c2c(n1)C(F)(F)CC2 [Example 649, (1R)-1-[4-[7,7-difluoro-2-[(2S)-2-methylazetidin-1-yl]-5,6-dihydrocyclopenta[d]pyrimidin-4-yl]phenyl]-2,2-difluoro-ethanamine]	–
2.6	59.7	20.6	32.4	–	–	–	–	–	–	–	C[C@H]1[C@H](O)CN1c1nc(-c2ccc3c(c2)OCCC3NS(C)(=O)=O)c2c(n1)C(F)(F)CC2 (stereo partly drawn) [Example 757, N-[7-[7,7-difluoro-2-[(2S,3R)-3-hydroxy-2-methyl-azetidin-1-yl]-5,6-dihydrocyclopenta[d]pyrimidin-4-yl]chroman-4-yl]methanesulfonamide]	–
0.5	41	6.5	2.2	–	–	–	–	–	–	–	C[C@H]1CCN1c1nc(-c2ccc3c(c2)OCC3NS(C)(=O)=O)c2c(n1)C(F)(F)CC2 (stereo partly drawn) [Example 758, N-[6-[7,7-difluoro-2-[(2S)-2-methylazetidin-1-yl]-5,6-dihydrocyclopenta[d]pyrimidin-4-yl]-2,3-dihydrobenzofuran-3-yl]methanesulfonamide]	–
3.3	129	28.1	27.4	–	–	–	–	–	–	–	C[C@H]1[C@H](O)CN1c1nc(-c2cc3c(c(CNS(C)(=O)=O)c2)OCC3)c2c(n1)C(F)(F)CC2 [Example 761, N-[[5-[7,7-difluoro-2-[(2S,3R)-3-hydroxy-2-methyl-azetidin-1-yl]-5,6-dihydrocyclopenta[d]pyrimidin-4-yl]-2,3-dihydrobenzofuran-7-yl]methyl]methanesulfonamide]	–
–	41.8	38.6	696	–	–	–	–	6.3	–	–	C[C@H]1[C@H](O)CN1c1nc(-c2ccc3c(c2)O[C@@H](CO)CNC3=O)c2c(n1)C(F)(F)CC2 [Example 808, (R)-8-(7,7-difluoro-2-((2S,3R)-3-hydroxy-2-methylazetidin-1-yl)-6,7-dihydro-5H-cyclopenta[d]pyrimidin-4-yl)-2-(hydroxymethyl)-3,4-dihydrobenzo[f][1,4]oxazepin-5(2H)-one]	–
–	2.3	0.9	5.6	–	–	–	–	–	–	–	COc1ccc(-c2nc(N3CC[C@@H]3C(F)(F)F)nc3c2CCC3(F)F)cc1[S@@](C)(=N)=O [Example 825, (S)-(5-(7,7-difluoro-2-((R)-2-(trifluoromethyl)azetidin-1-yl)-6,7-dihydro-5H-cyclopenta[d]pyrimidin-4-yl)-2-methoxyphenyl)(imino)(methyl)-λ^6-sulfanone]	–
–	–	–	–	–	–	–	–	89.7	72.4	–	ethyl N-[[4-[2-[(2S)-2-methylazetidin-1-yl]-6,7-dihydro-5H-cyclopenta[d]pyrimidin-4-yl]phenyl]methyl]carbamate [Example 359]	495

Molecule	IC50 (human KHK-C) [nM]	EC50 (HepG2 cells; [2]) [nM]	EC50 (HepG2 cells; [3]) [nM]	EC50 [1] [nM]	IC50 (human KHK-A) [nM]	EC50 (HepG2 cells; [4]) [nM]	EC50 (HepG2 cells; [5]) [nM]	EC50 [1, 6] [nM]	IC50 (human KHK-C; ADP-Glo) [nM]	IC50 (human KHK-A; ADP-Glo) [nM]	EC50 [1, 7] [nM]	EC50 [1, 8] [nM]
(S)-6-(2-(2-methylazetidin-1-yl)-6,7-dihydro-5H-cyclopenta[d]pyrimidin-4-yl)pyridine-2-sulfonamide [Example 223]	–	–	–	–	–	–	–	–	26.9	33.7	–	74.1
